Results published in patent US12029739B2, “SHP2 inhibitor and use thereof” (KANAPH THERAPEUTICS INC., priority 2021, dated 2024).
Read-outs that look alike come from different tables or passages of the source.

Experiments:
SHP2 (full length) = target: T1, SHP2 (full length) (Homo sapiens, UniProt Q06124); experiment: Phosphatase assay (PTPase assay) with DiFMUP substrate; format: biochemical; details: SHP2 activated with SHP2 activating peptide; DiFMUP 80 μM, 2 hours; fluorescence; read-out: IC50 (PTPase aS say)
T1 construct: SHP2 (full length, diluted to 100 pM final concentration in reaction buffer, BPS bioscience, US); purchased BPS bioscience, US
T1 sequence (Q06124 1-593): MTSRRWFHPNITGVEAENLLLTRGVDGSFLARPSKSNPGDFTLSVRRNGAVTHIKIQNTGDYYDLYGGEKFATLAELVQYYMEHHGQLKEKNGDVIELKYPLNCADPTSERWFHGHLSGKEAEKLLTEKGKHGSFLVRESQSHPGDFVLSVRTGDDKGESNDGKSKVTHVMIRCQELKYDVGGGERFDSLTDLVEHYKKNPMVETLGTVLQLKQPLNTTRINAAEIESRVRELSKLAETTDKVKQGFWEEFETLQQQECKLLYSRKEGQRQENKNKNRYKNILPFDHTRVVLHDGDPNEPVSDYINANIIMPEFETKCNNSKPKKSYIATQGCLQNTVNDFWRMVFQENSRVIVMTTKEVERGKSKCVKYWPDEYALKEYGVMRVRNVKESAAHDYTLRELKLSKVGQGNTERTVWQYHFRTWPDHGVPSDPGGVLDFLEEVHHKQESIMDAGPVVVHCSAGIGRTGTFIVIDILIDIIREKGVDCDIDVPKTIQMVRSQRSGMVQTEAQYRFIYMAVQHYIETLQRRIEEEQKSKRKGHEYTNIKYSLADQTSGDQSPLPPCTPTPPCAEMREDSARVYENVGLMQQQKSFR

[1] = tested on: phospho-ERK in MIA PaCa2 or H358 cells; experiment: Phospho-ERK assay (AlphaLisa); format: cell-based; details: MIA PaCa2 or H358 cells, compound incubated 1.5 hours, read-out: IC50 (p-ERK)

| IC50 (SHP2 (full length)) [nM] | IC50 ([1]; 1.5 h) [nM] | SMILES | IC50 [1] [nM] |
| --- | --- | --- | --- |
| > 100 | > 1500 | Cn1c(N2CCN(C[C@@H](N)c3ccccc3)CC2)nc(N)c(Sc2cccc(Cl)c2Cl)c1=O [Example 191, (S)-6-amino-2-(4-(2-amino-2-phenylethyl)piperazin-1-yl)-5-((2,3-dichlorophenyl)thio)-3-methylpyrimidin-4(3H)-one] | – |
| < 3 | < 45 | N[C@@H]1c2cccnc2CC12CCN(c1cnc(Sc3ccc4ncn(Cc5ccncn5)c(=O)c4c3Cl)cn1)CC2 [Example 141, (S)-6-((5-(5-amino-5,7-dihydrospiro[yclopenta[b]pyridine-6,4′-piperidin]-1′-yl)pyrazin-2-yl)thio)-5-chloro-3-(pyrimidin-4-ylmethyl)quinazolin-4(3H)-one] | – |
| < 3 | < 45 | N[C@H]1c2ccccc2CC12CCN(c1cnc(Sc3ccc4ncn(CC5CCOC5)c(=O)c4c3Cl)cn1)CC2 (stereo partly drawn) [Example 104, 6-((5-((R)-1-amino-1,3-dihydrospiro(indene-2,4′-piperidin]-1′-yl]pyrazin-2-yl]thio)-5-chloro-3-((tetrahydrofuran-3-yl)methyl)quinazolin-4(3H)-one] | – |
| < 3 | < 45 | C[C@@H]1OCC2(CCN(c3cnc(Sc4ccc5ncn(CC6CCC(=O)CC6)c(=O)c5c4Cl)cn3)CC2)[C@@H]1N [Example 121] | – |
| 3 to 100 | 45 to 1500 | CC(C)(O)Cn1cnc2ccc(Sc3cnc(N4CCC5(CC4)Cc4scnc4[C@@H]5N)cn3)c(Cl)c2c1=O [Example 152, 6-[5-[(4R)-4-aminospiro[4,6-dihydrocyclopenta[d]thiazole-5,4′-piperidin]-1′-yl]pyrazin-2-yl]sulfanyl-5-chloro-3-(2-hydroxy-2-methyl-propyl)quinazolin-4-one] | – |
| < 3 | < 45 | COc1ccc(C)cc1Cn1cnc2ccc(Sc3cnc(N4CCC5(CC4)CO[C@@H](C)[C@H]5N)cn3)c(Cl)c2c1=O [Example 93, 6-((5-((3S,4S)-4-amino-3-methyl-2-oxa-8-azaspiro[4.5]decan-8-yl)pyrazin-2-yl)thio)-5-chloro-3-(2-methoxy-5-methylbenzyl)quinazolin-4(3H)-one] | – |
| < 3 | < 45 | COCCn1cnc2ccc(Sc3cnc(N4CCC5(CC4)Cc4scnc4[C@H]5N)cn3)c(Cl)c2c1=O [Example 151, 6-[5-[(4S)-4-aminospiro[4,6-dihydrocyclopenta[d]thiazole-5,4′-piperidin]-1′-yl]pyrazin-2-yl]sulfanyl-5-chloro-3-(2-methoxyethyl)quinazolin-4-one] | – |
| < 3 | < 45 | CC(C)(O)Cn1cnc2ccc(Sc3ncc(N4CCC5(CC4)Cc4scnc4[C@H]5N)nc3N)c(Cl)c2c1=O [Example 165, (S)-6-((3-amino-5-(4-amino-4,6-dihydrospiro[cyclopenta[d]thiazole-5,4′-piperidin]-1′-yl)pyrazin-2-yl)thio)-5-chloro-3-(2-hydroxy-2-methylpropyl)quinazolin-4(3H)-one] | – |
| < 3 | 45 to 1500 | CC(c1ccccc1)n1cnc2ccc(Sc3cnc(N4CCC5(CC4)CO[C@@H](C)[C@H]5N)cn3)c(Cl)c2c1=O (stereo partly drawn) [Example 32, 6-((5-((3S,4S)-4-amino-3-methyl-2-oxa-8-azaspiro[4.5]decan-8-yl)pyrazin-2-yl)thio)-5-chloro-3-(1-phenylethyl)quinazolin-4(3H)-one] | – |
| < 3 | < 45 | COC(C)Cn1cnc2ccc(Sc3cnc(N4CCC5(CC4)CO[C@@H](C)[C@H]5N)cn3)c(Cl)c2c1=O (some centres unmarked) [Example 120] | – |
| < 3 | < 45 | COC(C)Cn1cnc2ccc(Sc3ncc(N4CCC5(CC4)Cc4ncsc4[C@H]5N)nc3N)c(Cl)c2c1=O (some centres unmarked) [Example 176] | – |
| < 3 | < 45 | COc1cccc(Cn2cnc3ccc(Sc4cnc(N5CCC6(CC5)CO[C@@H](C)[C@H]6N)cn4)c(Cl)c3c2=O)c1 [Example 36, 6-((5-((3S,4S)-4-amino-3-methyl-2-oxa-8-azaspiro[4.5]decan-8-yl)pyrazin-2-yl)thio)-5-chloro-3-(3-methoxybenzyl)quinazolin-4(3H)-one] | – |
| < 3 | < 45 | C[C@@H]1OCC2(CCN(c3cnc(Sc4ccc5c(nc(OC6CCOC6)n5C)c4Cl)cn3)CC2)[C@@H]1N (some centres unmarked) [Example 130] | – |
| < 3 | < 45 | CC(C)OCCn1cnc2ccc(Sc3cnc(N4CCC5(CC4)CO[C@@H](C)[C@H]5N)cn3)c(Cl)c2c1=O [Example 116, 6-((5-(3S,4S)-4-amino-3-methyl-2-oxa-8-azaspiro[4,5]decan-8-yl)pyrazin-2-yl)thio)-5-chloro-(3-(2-isopropoxyethyl)quinazolin-4(3H)-one] | – |
| 3 to 100 | < 45 | COCCn1cnc2ccc(Sc3cnc(N4CCC5(CC4)CO[C@@H](C)[C@H]5N)cn3)c(F)c2c1=O [Example 156] | – |
| < 3 | < 45 | C[C@@H]1OCC2(CCN(c3cnc(Sc4ccc5ncn(Cc6ccoc6)c(=O)c5c4Cl)cn3)CC2)[C@@H]1N [Example 119] | – |
| > 100 | > 1500 | Cn1c(N2CCN(CCN)CC2)nc(N)c(Sc2cccc(Cl)c2Cl)c1=O [Example 194, 6-amino-2-(4-(2-aminoethyl)piperazin-1-yl)-5-((2,3-dichlorophenyl)thio)-3-methylpyrimidin-4(3H)-one] | – |
| 3 to 100 | 45 to 1500 | C[C@@H]1OCC2(CCN(c3cnc(Sc4ccc5ncn(CCN6CCCC6)c(=O)c5c4Cl)cn3)CC2)[C@@H]1N [Example 89] | – |
| < 3 | < 45 | C[C@@H]1OCC2(CCN(c3cnc(Sc4ccc5ncn(Cc6cnccn6)c(=O)c5c4Cl)cn3)CC2)[C@@H]1N [Example 44, 6-((5-((3S,4S)-4-amino-3-methyl-2-oxa-8-azaspiro[4.5]decan-8-yl)pyrazin-2-yl)thio)-5-chloro-3-(pyrazin-2-ylmethyl)quinazolin-4(3H)-one] | – |
| < 3 | < 45 | C[C@@H]1OCC2(CCN(c3cnc(Sc4ccc5ncn(Cc6cccc(C#N)c6)c(=O)c5c4Cl)cn3)CC2)[C@@H]1N [Example 31, 3-((6-((5-((3S,4S)-4-amino-3-methyl-2-oxa-8-azaspiro[4.5]decan-8-yl)pyrazin-2-yl)thio)-5-chloro-4-oxoquinazolin-3(4H)-yl)methyl)benzonitrile] | – |
| 3 to 100 | 45 to 1500 | N[C@H]1c2cccnc2CC12CCN(c1cnc(Sc3ccc4ncn(Cc5cccnc5)c(=O)c4c3Cl)cn1)CC2 [Example 106, (R)-6-((5-(5-amino-5,7-dihydrospiro[yclopenta[b]pyridine-6,4′-piperidin]-1′-yl)pyrazin-2-yl)thio)-5-chloro-(3-pyridin-3-ylmethyl)quinazolin-4(3H)-one] | – |
| < 3 | < 45 | C[C@@H]1OCC2(CCN(c3cnc(Sc4ccc5ncn(CC(N)=O)c(=O)c5c4Cl)cn3)CC2)[C@@H]1N [Example 97, 2-(6-((5-((3S,4S)-4-amino-3-methyl-2-oxa-8-azaspiro[4.5]decan-8-yl)pyrazin-2-yl)thio)-5-chloro-4-oxoquinazolin-3(4H)-yl)acetamide] | – |
| < 3 | < 45 | C[C@@H]1OCC2(CCN(c3cnc(Sc4ccc5ncn(CCCF)c(=O)c5c4Cl)cn3)CC2)[C@@H]1N [Example 77, 6-((5-((3S,4S)-4-amino-3-methyl-2-oxa-8-azaspiro[4.5]decan-8-yl)pyrazin-2-yl)thio)-5-chloro-3-(3-fluoropropyl)quinazolin-4(3H)-one] | – |

| SMILES | IC50 (SHP2 (full length)) [nM] | IC50 ([1]; 1.5 h) [nM] | IC50 [1] [nM] |
| --- | --- | --- | --- |
| COCCn1cnc2ccc(Sc3cnc(N4CCC5(CC4)Cc4ccccc4[C@H]5N)cn3)c(Cl)c2c1=O [Example 84, (S)-6-((5-(1-amino-1,3-dihydrospiro(indene-2,4′-piperidin]-1′-yl)pyrazin-2-yl)thio)-5-chloro-3-(2-methoxyethyl)quinazolin-4(3H)-one] | < 3 | – | < 45 |
| Cn1c(N2CCN[C@H](CN)C2)nc(N)c(Sc2cccc(Cl)c2Cl)c1=O [Example 197, (R)-6-amino-2-(3-(aminomethyl)piperazin-1-yl)-5-((2,3-dichlorophenyl)thio)-3-methylpyrimidin-4(3H)-one] | 3 to 100 | – | 45 to 1500 |
| COCCn1cnc2ccc(Sc3ccc(N4CCC5(CC4)CO[C@@H](C)[C@H]5N)cn3)c(Cl)c2c1=O [Example 181, 6-((5-((3S,4S)-4-amino-3-methyl-2-oxa-8-azaspiro[4.5]decan-8-yl)pyridin-2-yl)thio)-5-chloro-3-(2-methoxyethyl)quinazolin-4(3H)-one] | 3 to 100 | – | 45 to 1500 |
| COCCn1cnc2ccc(Sc3n[nH]c4nc(N5CCC6(CC5)CO[C@@H](C)[C@H]6N)cnc34)c(Cl)c2c1=O [Example 178, 6-((6-((3S,4S)-4-amino-3-methyl-2-oxa-8-azaspiro[4.5]decan-8-yl)-1H-pyrazolo[3,4-b]pyrazin-3-yl)thio)-5-chloro-3-(2-methoxyethyl)quinazolin-4(3H)-one] | < 3 | – | < 45 |
| COCCn1cnc2ccc(Sc3nc(CO)c(N4CCC5(CC4)CO[C@@H](C)[C@H]5N)nc3C)c(Cl)c2c1=O [Example 131] | 3 to 100 | – | 45 to 1500 |
